The text below walks through data of ChEMBL document CHEMBL2311491, “Development of new cyclic plasmin inhibitors with excellent potency and selectivity” (J Med Chem, 2013).

As usually defined, the Ki is the dissociation constant of the complex between target and ligand, obtained from inhibition or displacement. A higher Ki goes with lower affinity.

The target in one test is Trypsin (Sus scrofa, UniProt P00761). Briefly: Inhibition of pig trypsin using CH3SO2-D-Cha-Gly-Arg-pNA as substrate after 5 to 10 mins by micro plate reader analysis.
Sequence of Trypsin (P00761 whole entry): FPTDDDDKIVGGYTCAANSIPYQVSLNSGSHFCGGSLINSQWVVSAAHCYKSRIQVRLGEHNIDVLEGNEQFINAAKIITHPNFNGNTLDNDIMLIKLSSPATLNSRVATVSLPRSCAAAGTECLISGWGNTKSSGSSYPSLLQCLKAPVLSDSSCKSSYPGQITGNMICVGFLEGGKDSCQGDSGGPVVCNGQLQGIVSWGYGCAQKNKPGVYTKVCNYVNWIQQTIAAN
The target of test [1] is Vitamin K-dependent protein C (Homo sapiens, UniProt P04070). Description: Inhibition of human activated protein C using H-D-Lys(Cbz)-Pro-Arg-pNA as substrate after 5 to 10 mins by micro plate reader analysis.
Sequence of Vitamin K-dependent protein C (P04070 43-197 limits assumed): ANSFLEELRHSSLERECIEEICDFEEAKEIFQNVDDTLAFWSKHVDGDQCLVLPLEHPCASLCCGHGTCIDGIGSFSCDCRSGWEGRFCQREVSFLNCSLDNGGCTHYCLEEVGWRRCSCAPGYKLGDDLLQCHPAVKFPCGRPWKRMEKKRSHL
Sequence of Vitamin K-dependent protein C (P04070 212-461 limits assumed): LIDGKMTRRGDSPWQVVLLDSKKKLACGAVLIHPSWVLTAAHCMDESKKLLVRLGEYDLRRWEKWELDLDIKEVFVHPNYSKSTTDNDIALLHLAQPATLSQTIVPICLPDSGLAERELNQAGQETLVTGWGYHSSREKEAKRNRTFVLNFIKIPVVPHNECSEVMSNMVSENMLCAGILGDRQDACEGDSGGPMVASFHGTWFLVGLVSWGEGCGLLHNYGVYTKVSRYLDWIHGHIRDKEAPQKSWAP
The target of a further test is Prothrombin (Homo sapiens, UniProt P00734). Description: Inhibition of human thrombin using CH3SO2-D-Cha-Gly-Arg-pNA as substrate after 5 to 10 mins by micro plate reader analysis.
The next test addresses Plasma kallikrein (Homo sapiens, UniProt P03952). Briefly: Inhibition of human plasma kallikrein using H-D-Pro-Phe-Arg-pNA as substrate after 5 to 10 mins by micro plate reader analysis.
Another test has as its target Plasminogen (Homo sapiens, UniProt P00747). Description: Inhibition of human plasmin protease domain using Tos-Gly-Pro-Lys-pNA as substrate by micro plate reader analysis.
For another test, the target named is Coagulation factor X (Homo sapiens, UniProt P00742). Description: Inhibition of human factor Xa using CH3OCO-D-Cha-Gly-Arg-pNA as substrate after 5 to 10 mins by micro plate reader analysis.
Sequence of Coagulation factor X (P00742 41-179 limits assumed): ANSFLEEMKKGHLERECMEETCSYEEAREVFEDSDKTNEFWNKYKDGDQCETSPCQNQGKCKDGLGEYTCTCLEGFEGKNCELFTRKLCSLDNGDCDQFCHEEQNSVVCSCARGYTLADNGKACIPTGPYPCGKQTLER
Sequence of Coagulation factor X (P00742 235-488 limits assumed): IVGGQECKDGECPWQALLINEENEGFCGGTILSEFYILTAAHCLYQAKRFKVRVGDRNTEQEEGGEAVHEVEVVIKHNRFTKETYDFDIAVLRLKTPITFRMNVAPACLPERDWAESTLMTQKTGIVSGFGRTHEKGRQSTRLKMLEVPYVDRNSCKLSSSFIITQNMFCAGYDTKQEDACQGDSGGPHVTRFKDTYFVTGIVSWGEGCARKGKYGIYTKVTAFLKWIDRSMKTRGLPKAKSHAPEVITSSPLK

Each structure is given as a SMILES string.

Sequence of Plasminogen (P00747 97-580 limits assumed): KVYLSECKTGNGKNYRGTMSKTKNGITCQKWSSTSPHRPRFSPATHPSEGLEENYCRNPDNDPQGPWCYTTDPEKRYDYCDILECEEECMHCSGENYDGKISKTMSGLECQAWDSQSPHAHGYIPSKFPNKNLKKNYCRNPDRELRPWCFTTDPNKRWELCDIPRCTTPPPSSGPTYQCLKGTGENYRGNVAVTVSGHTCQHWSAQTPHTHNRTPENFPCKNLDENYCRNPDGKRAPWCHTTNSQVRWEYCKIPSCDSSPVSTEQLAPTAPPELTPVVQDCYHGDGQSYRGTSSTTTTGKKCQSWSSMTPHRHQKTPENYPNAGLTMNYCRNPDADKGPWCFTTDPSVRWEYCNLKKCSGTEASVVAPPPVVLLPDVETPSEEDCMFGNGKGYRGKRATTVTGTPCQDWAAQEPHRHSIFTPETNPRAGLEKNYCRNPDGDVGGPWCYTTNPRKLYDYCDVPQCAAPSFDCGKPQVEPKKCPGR
Sequence of Plasminogen (P00747 581-810 limits assumed): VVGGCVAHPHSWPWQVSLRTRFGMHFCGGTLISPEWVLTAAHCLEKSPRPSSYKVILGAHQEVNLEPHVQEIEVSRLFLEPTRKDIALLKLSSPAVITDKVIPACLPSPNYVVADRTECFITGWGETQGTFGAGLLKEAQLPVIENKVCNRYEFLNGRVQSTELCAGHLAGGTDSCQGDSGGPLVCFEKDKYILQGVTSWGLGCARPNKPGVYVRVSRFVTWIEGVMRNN
Sequence of Plasma kallikrein (P03952 20-390 limits assumed): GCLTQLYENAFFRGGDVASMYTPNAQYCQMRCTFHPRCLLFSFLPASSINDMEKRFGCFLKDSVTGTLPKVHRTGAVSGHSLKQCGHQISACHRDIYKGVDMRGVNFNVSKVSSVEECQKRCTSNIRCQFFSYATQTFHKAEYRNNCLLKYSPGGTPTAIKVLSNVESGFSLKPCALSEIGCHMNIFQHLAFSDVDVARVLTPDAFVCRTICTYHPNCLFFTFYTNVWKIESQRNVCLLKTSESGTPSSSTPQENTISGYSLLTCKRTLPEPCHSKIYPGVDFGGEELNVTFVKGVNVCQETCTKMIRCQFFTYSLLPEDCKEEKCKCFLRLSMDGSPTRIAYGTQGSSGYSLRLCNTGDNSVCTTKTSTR
Sequence of Plasma kallikrein (P03952 391-638 limits assumed): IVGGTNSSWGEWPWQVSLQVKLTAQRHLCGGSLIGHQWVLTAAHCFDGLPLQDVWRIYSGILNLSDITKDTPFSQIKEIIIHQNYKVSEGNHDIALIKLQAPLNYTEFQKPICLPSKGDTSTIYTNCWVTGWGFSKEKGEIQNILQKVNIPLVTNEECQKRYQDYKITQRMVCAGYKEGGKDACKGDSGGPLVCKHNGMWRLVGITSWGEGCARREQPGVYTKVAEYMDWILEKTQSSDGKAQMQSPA

For the compound `C[C@H]1CN2CC(=O)Nc3ccc(cc3)C[C@@H](C(=O)NCc3ccc(C(=N)N)cc3)NC(=O)[C@H](NS(=O)(=O)Cc3ccccc3)Cc3ccc(cc3)CNC(=O)CN1C[C@@H]2C`, the Ki came out at 126 nM at Trypsin; 1600 nM in test [1]; 2950 nM at Prothrombin; 116 nM on Plasma kallikrein; 1.71 nM on Plasminogen; 3250 nM at Coagulation factor X.

For the compound `N=C(N)c1ccc(CNC(=O)[C@@H]2Cc3ccc(cc3)NC(=O)CN3CCN(CC3)CC(=O)Nc3cccc(c3)C[C@@H](NS(=O)(=O)Cc3ccccc3)C(=O)N2)cc1`, the Ki on Trypsin was found to be 7.8 nM; in test [1], 420 nM; at Prothrombin it was 604 nM; at Plasma kallikrein, 118 nM; at Coagulation factor X it was 415 nM.

Take `N=C(N)c1ccc(CNC(=O)[C@@H]2Cc3ccc(cc3)NC(=O)CCN3CCN(CCC(=O)Nc4cccc(c4)C[C@@H](NS(=O)(=O)Cc4ccccc4)C(=O)N2)CC3)cc1`: the Ki at Trypsin was 0.6 nM; in test [1], 3800 nM; on Prothrombin, 376 nM; at Plasma kallikrein it was 240 nM; on Plasminogen, 4 nM; at Coagulation factor X, 1260 nM.

As for `C[C@@H]1CN2CC(=O)Nc3ccc(cc3)C[C@@H](C(=O)NCc3ccc(C(=N)N)cc3)NC(=O)[C@H](NS(=O)(=O)Cc3ccccc3)Cc3ccc(cc3)NC(=O)CN1C[C@@H]2C`, the Ki on Trypsin was 18.1 nM; in test [1], greater than 20000 nM; on Prothrombin it was 12100 nM; on Plasma kallikrein, 500 nM; at Plasminogen, 1.15 nM; at Coagulation factor X, 14000 nM.

`C[C@H]1CN2CC(=O)Nc3ccc(cc3)C[C@@H](NS(=O)(=O)Cc3ccccc3)C(=O)N[C@H](C(=O)NCc3ccc(C(=N)N)cc3)Cc3ccc(cc3)NC(=O)CN1C[C@@H]2C`: the Ki came to 55 nM at Trypsin; 4800 nM in test [1]; 8510 nM on Prothrombin; 242 nM at Plasma kallikrein; 1.62 nM at Plasminogen; 3700 nM at Coagulation factor X.

For `N=C(N)c1ccc(CNC(=O)[C@@H]2Cc3cccc(c3)NC(=O)CCN3CCN(CCC(=O)Nc4ccc(cc4)C[C@@H](NS(=O)(=O)Cc4ccccc4)C(=O)N2)CC3)cc1`, the Ki stood at 24.9 nM at Trypsin; 880 nM in test [1]; 3250 nM on Prothrombin; 24 nM at Plasma kallikrein; 5.1 nM at Plasminogen; 237 nM on Coagulation factor X.

As for `N=C(N)c1ccc(CNC(=O)[C@@H]2Cc3ccc(cc3)NC(=O)CCN3CCCN(CCC(=O)Nc4ccc(cc4)C[C@@H](NS(=O)(=O)Cc4ccccc4)C(=O)N2)CC3)cc1`, the Ki worked out at 10.2 nM on Trypsin; 7800 nM in test [1]; 11200 nM on Prothrombin; 422 nM at Plasma kallikrein; 1.32 nM at Plasminogen; 8500 nM on Coagulation factor X.

Regarding `N=C(N)c1ccc(CNC(=O)[C@@H]2Cc3ccc(cc3)NC(=O)CN3CCCN(CC3)CC(=O)NCc3ccc(cc3)C[C@@H](NS(=O)(=O)Cc3ccccc3)C(=O)N2)cc1`, the inhibition constant (Ki) is 41.7 nM at Trypsin; greater than 10000 nM in test [1]; 5870 nM on Prothrombin; 440 nM at Plasma kallikrein; 0.76 nM at Plasminogen; 9000 nM at Coagulation factor X.

As to `N=C(N)c1ccc(CNC(=O)[C@@H]2Cc3ccc(cc3)NC(=O)CN3CCN(CC3)CC(=O)NCc3ccc(cc3)C[C@@H](NS(=O)(=O)Cc3ccccc3)C(=O)N2)cc1`, the Ki came out at 17.8 nM on Trypsin; 3900 nM in test [1]; 884 nM on Prothrombin; 187 nM at Plasma kallikrein; 2510 nM on Coagulation factor X.

As for `N=C(N)c1ccc(CNC(=O)[C@@H]2Cc3cccc(c3)NC(=O)CN3CCN(CC3)CC(=O)Nc3cccc(c3)C[C@@H](NS(=O)(=O)Cc3ccccc3)C(=O)N2)cc1`, the Ki is 3.4 nM on Trypsin; 39 nM in test [1]; 227 nM at Prothrombin; 3.2 nM at Plasma kallikrein; 12.3 nM on Coagulation factor X.

With `N=C(N)c1ccc(CNC(=O)[C@@H]2Cc3cccc(c3)NC(=O)CN3CCN(CC3)CC(=O)Nc3ccc(cc3)C[C@@H](NS(=O)(=O)Cc3ccccc3)C(=O)N2)cc1`, the Ki at Trypsin turned out to be 19.4 nM; in test [1], 4100 nM; at Prothrombin, 8020 nM; on Plasma kallikrein it was 12.9 nM; on Coagulation factor X it was 1800 nM.

With `N=C(N)c1ccc(CNC(=O)[C@@H]2Cc3ccc(cc3)NC(=O)CN3CCCN(CC3)CC(=O)Nc3ccc(cc3)C[C@@H](NS(=O)(=O)Cc3ccccc3)C(=O)N2)cc1`, the Ki at Trypsin was 3 nM; in test [1] it was greater than 10000 nM; on Prothrombin, 14100 nM; on Plasma kallikrein it was 392 nM; at Plasminogen, 0.57 nM; on Coagulation factor X, 7360 nM.
